Columns and labels:
[1] = TR-FRET retinol binding assay of mRBP4 proteins; details: retinol binding affinities of mRBP4 proteins
Experimental: The binding affinities of mRBP4 proteins were determined by a TR-FRET retinol binding assay.
WT and pNO2Phe mRBP4 mutant proteins were labeled with biotin using the Sulfo-NHS-Biotin kit (Pierce, Rockford, Ill.) according to manufacturer instructions. For determination of retinol binding activity, 10 nM biotin-labeled RBP4 was mixed with 1 nM Streptavidin-Europium chelate (LANCE® Eu-W8044 Streptavidin, Perkin Elmer, Foster City, Calif.). Increasing concentrations of Cy5-labeled retinol were added to the reaction and retinol binding was assessed by homogeneous time-resolved fluorescence resonance energy transfer (TR-FRET).

WT mRBP4 = biological target: T1, WT mRBP4 (Mus musculus, UniProt Q00724); assay: Immunization of mice with mRBP4 variants (RIMMS), serum IgG titers by ELISA; format: in vivo; details: Bcl2 mice (FIG. 19), C57BL/6 mice (FIG. 26), RIMMS protocol
T1 construct: The cDNA encoding murine RBP4 (aa 19-201); made in house; host or cells: E. coli BL21(DE3)
Experimental: 30 μl of 0.5 μg/ml protein was used to coat the wells of Maxisorp 384-well plates (Nunc, Rochester, N.Y.) overnight at 4° C. After washing with PBS+0.05% Tween 20 (PBST), the coated plates were blocked with 80 μl of 1% BSA in PBS, and washed again with PBST. The plates were sequentially incubated with 20 μl of primary antibody or serum diluted in 1% BSA in PBS, 20 μl of HRP-conjugated goat anti-mouse IgG or anti-mouse IgM (Jackson ImmunoResearch Laboratories, West Grove, Pa.), and 20 μl of TMB substrate (KPL, Gaithersburg, Md.), and read at an absorbance of 650 nm. Between incubations, the plates were washed at least six times with PBST.
Before measurement, serum samples were diluted 1:1,000 with 1% BSA in PBS buffer.

WT mRBP4: wild-type murine retinol binding protein 4, N-terminal His6-tagged, expressed in E. coli
Kd [1]: 171 nM | serum IgG titers against WT mRBP4 (WT mRBP4): insignificant serum IgG titers
